According to ChEMBL document CHEMBL4138182, “Aminomethylation of heliomycin: Preparation and anticancer characterization of the first series of semi-synthetic derivatives” (Eur J Med Chem, 2018):
Active and inactive are the calls of the source. No cut-off for these calls is given here.

Assays:
CCRF-CEM = experiment: Antiproliferative activity against human CEM cells after 72 hrs by MTT assay; format: functional, cell-based
K562 = experiment: Antiproliferative activity against human K562 cells after 72 hrs by MTT assay; format: functional, cell-based; settings: K562, 72 h
HCT-116 [1] = experiment: Antiproliferative activity against p53 deficient human HCT116 cells after 72 hrs by MTT assay; format: functional, cell-based; settings: HCT-116, 72 h
L1210 = experiment: Antiproliferative activity against mouse L1210 cells after 72 hrs by MTT assay; format: functional, cell-based; settings: L1210, 72 h
HeLa = experiment: Antiproliferative activity against human HeLa cells after 72 hrs by MTT assay; format: functional, cell-based
[2] = Antiproliferative activity against human K562/4 cells after 72 hrs by MTT assay; format: functional, cell-based; settings: K562/4, 72 h
HCT-116 [3] = experiment: Antiproliferative activity against human HCT116 cells after 72 hrs by MTT assay; format: functional, cell-based; settings: HCT-116, 72 h
T-24 [4] = experiment: Growth inhibition of human T24 cells after 72 hrs by cell impedance method; format: functional, cell-based; settings: T-24, 72 h
T-24 [5] = experiment: Induction of apoptosis n human T24 cells at 1 uM after 24 hrs by annexin V-FITC/propidium iodide staining-based flow cytometric method; format: functional, cell-based
HMEC-1 = experiment: Antiproliferative activity against HMEC1 cells after 72 hrs by MTT assay; format: cell-based; settings: Homo sapiens, HMEC-1, 72 h
[6] = Selectivity index, ratio of IC50 for HMEC1 cells to IC50 for p53 deficient human HCT116 cells; format: toxicity; settings: HMEC1 cells and p53 deficient HCT116 cells, read-out: Ratio IC50
T-24 [7] = experiment: Induction of apoptosis n human T24 cells assessed as PARP cleavage at 0.5 to 1 uM after 18 hrs by Western blot method; format: functional, cell-based
[8] = Selectivity index, ratio of IC50 for HMEC1 cells to IC50 for human K562 cells; format: toxicity; settings: HMEC1 cells and K562 cells, read-out: Ratio IC50
T-24 [9] = experiment: Induction of apoptosis n human T24 cells assessed as caspase-3 cleavage at 0.5 to 1 uM after 18 hrs by Western blot method; format: functional, cell-based
T-24 [10] = experiment: Induction of apoptosis n human T24 cells assessed as downregulation of Bcl-2 levels at 0.5 to 1 uM after 18 hrs by Western blot method; format: functional, cell-based
[11] = Selectivity index, ratio of IC50 for HMEC1 cells to IC50 for human CEM cells; format: toxicity; settings: HMEC1 cells and CEM cells, read-out: Ratio IC50
T-24 [12] = experiment: Induction of apoptosis n human T24 cells assessed as upregulation of Bak levels at 0.5 to 1 uM after 18 hrs by Western blot method; format: functional, cell-based
[13] = Selectivity index, ratio of IC50 for HMEC1 cells to IC50 for human K562/4 cells; format: toxicity; settings: HMEC1 cells and K562/4 cells, read-out: Ratio IC50
[14] = Selectivity index, ratio of IC50 for HMEC1 cells to IC50 for human HCT116 cells; format: toxicity; settings: HMEC1 cells and HCT116 cells, read-out: Ratio IC50
T-24 [15] = experiment: Induction of reactive oxygen species generation in human T24 cells at 1 uM after 30 mins by H2DCFDA dye-based flow cytometric method; format: functional, cell-based
T-24 [16] = experiment: Induction of apoptosis n human T24 cells assessed as upregulation of p53 levels at 0.5 to 1 uM after 18 hrs by Western blot method; format: functional, cell-based
[17] = Selectivity index, ratio of IC50 for HMEC1 cells to IC50 for human HeLa cells; format: toxicity; settings: HMEC1 cells and HeLa cells, read-out: Ratio IC50
[18] = Selectivity index, ratio of IC50 for HMEC1 cells to IC50 for mouse L1210 cells; format: toxicity; settings: HMEC1 cells and L1210 cells, read-out: Ratio IC50
Calf thymus DNA [19] = experiment: Binding affinity to calf thymus double stranded DNA by Benesi-Hildebrand plot analysis; format: nucleic-acid assay, Bos taurus
Calf thymus DNA [20] = experiment: Binding affinity to calf thymus double stranded DNA at 10 uM by fluorescence spectrophotometer; format: nucleic-acid assay; settings: Bos taurus
[21] = molecular target: T1, DNA topoisomerase 1 (Homo sapiens) (UniProt P11387); experiment: Inhibition of human DNA topoisomerase 1 assessed as decrease in relaxation of pBR322 at <= 20 uM after 30 to 40 mins by agarose gel electrophoresis
T1 sequence (whole entry): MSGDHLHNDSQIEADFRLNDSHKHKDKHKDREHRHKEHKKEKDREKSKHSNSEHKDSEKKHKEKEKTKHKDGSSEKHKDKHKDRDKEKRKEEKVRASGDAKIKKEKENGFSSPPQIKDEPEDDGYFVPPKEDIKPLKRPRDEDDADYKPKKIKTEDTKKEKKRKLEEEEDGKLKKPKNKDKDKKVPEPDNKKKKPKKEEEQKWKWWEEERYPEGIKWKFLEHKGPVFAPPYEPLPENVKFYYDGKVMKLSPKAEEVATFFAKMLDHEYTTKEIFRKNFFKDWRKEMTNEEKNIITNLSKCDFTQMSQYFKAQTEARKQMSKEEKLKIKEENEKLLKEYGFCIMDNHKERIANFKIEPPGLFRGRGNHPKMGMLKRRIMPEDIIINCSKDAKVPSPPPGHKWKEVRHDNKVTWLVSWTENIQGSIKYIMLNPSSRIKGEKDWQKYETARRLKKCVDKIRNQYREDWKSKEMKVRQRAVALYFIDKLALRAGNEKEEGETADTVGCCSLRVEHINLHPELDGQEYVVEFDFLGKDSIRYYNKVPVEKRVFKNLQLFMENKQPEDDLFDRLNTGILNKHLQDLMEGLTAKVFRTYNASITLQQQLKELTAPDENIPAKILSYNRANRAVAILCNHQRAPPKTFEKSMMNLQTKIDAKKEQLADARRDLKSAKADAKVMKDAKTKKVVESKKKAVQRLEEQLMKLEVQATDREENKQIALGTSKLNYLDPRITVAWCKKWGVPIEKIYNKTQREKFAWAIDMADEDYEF

Compound	IC50 (CCRF-CEM) [nM]	IC50 (K562) [nM]	IC50 (HCT-116 [1]) [nM]	IC50 (L1210) [nM]	IC50 (HeLa) [nM]	IC50 [2] [nM]	IC50 (HCT-116 [3]) [nM]	further results
Cc1cc(O)c2c3c4c(cc(O)c13)C(C)(C)C(=O)c1c(O)c(CN3CCOCC3)c(O)c(c1-4)C2=O	24200	8600	200	62000	11100	300	300	–
Cc1cc(O)c2c3c4c(cc(O)c13)C(C)(C)C(=O)c1c(O)c(CN3CCNCC3)c(O)c(c1-4)C2=O	5600	2500	1800	4200	5400	5800	4800	–
Cc1cc(O)c2c3c4c(cc(O)c13)C(C)(C)C(=O)c1c(O)c(CNCCN(C)C)c(O)c(c1-4)C2=O	1800	2200	700	1900	3900	2200	200	–
Cc1cc(O)c2c3c4c(cc(O)c13)C(C)(C)C(=O)c1c(O)c(CNC(C)(C)C)c(O)c(c1-4)C2=O	300	500	300	8800	700	1600	600	IC50 (T-24 [4]): 1100 nM; Activity (T-24 [5]): Active; IC50 (HMEC-1): 7800 nM; selectivity ratio [6]: 2 to 50; Activity (T-24 [7]): Active; selectivity ratio [8]: 2 to 50; Activity (T-24 [9]): Active; Activity (T-24 [10]): Active; selectivity ratio [11]: 2 to 50; Activity (T-24 [12]): Active; selectivity ratio [13]: 2 to 50; selectivity ratio [14]: 2 to 50; Activity (T-24 [15]): Active; Activity (T-24 [16]): Active; selectivity ratio [17]: 2 to 50
Cc1cc(O)c2c3c4c(cc(O)c13)C(C)(C)C(=O)c1c(O)c(CN3CCCC3)c(O)c(c1-4)C2=O	7200	1200	100	14100	14200	3400	200	–
CCN1CCN(Cc2c(O)c3c4c(c2O)C(=O)C(C)(C)c2cc(O)c5c(C)cc(O)c(c5c2-4)C3=O)CC1	800	900	1700	800	800	3400	1600	–
CCN(CC)Cc1c(O)c2c3c(c1O)C(=O)C(C)(C)c1cc(O)c4c(C)cc(O)c(c4c1-3)C2=O	198000	400	500	> 250000	> 250000	300	1100	–
Cc1cc(O)c2c3c4c(cc(O)c13)C(C)(C)C(=O)c1c(O)c(CN3CCN(C)CC3)c(O)c(c1-4)C2=O	2100	1200	500	2300	3600	4500	3300	–
Cc1cc(O)c2c3c4c(cc(O)c13)C(C)(C)C(=O)c1c(O)c(CN3CCC(N)C3)c(O)c(c1-4)C2=O (centres undefined)	3400	1500	1100	2900	2600	4500	3600	–
Cc1cc(O)c2c3c4c(cc(O)c13)C(C)(C)C(=O)c1c(O)c(CN3CCCCC3)c(O)c(c1-4)C2=O	900	300	100	3400	800	800	300	–
Cc1cc(O)c2c3c4c(cc(O)c13)C(C)(C)C(=O)c1c(O)c(CN3CCN(CCO)CC3)c(O)c(c1-4)C2=O	5200	2700	1300	3000	4800	4200	3700	–
Cc1cc(O)c2c3c4c(cc(O)c13)C(C)(C)C(=O)c1c(O)c(CN3CCCC(O)C3)c(O)c(c1-4)C2=O (centres undefined)	2100	700	900	3400	3600	900	1000	–
Cc1cc(O)c2c3c4c(cc(O)c13)C(C)(C)C(=O)c1c(O)c(CN(C)C)c(O)c(c1-4)C2=O	17100	700	600	17000	28300	1000	1100	IC50 (T-24 [4]): 4700 nM; Activity (T-24 [5]): Active; IC50 (HMEC-1): 32600 nM; selectivity ratio [6]: 2 to 50; Activity (T-24 [7]): Active; selectivity ratio [8]: 2 to 50; Activity (T-24 [9]): Active; selectivity ratio [18]: 2 to 50; Activity (T-24 [10]): Active; Kd (Calf thymus DNA [19]): 34000 nM; Kb (Calf thymus DNA [19]; Bos taurus): 3 ×10⁴ /M; Activity (Calf thymus DNA [20]): Active; Activity (T-24 [12]): Active; selectivity ratio [13]: 2 to 50; selectivity ratio [14]: 2 to 50; Activity (T-24 [15]): Active; Topoisomerase 1 inhibition (active/inactive) [21]: Active; Activity (T-24 [16]): Active
